This passage reports TGI and GI50 results from PubChem BioAssay (NCI).

Some test systems named below: OVCAR-5 ovarian; HOP-92 NSCLC; MDA-MB-435; UACC-257 melanoma; U251 CNS; A549 NSCLC; T-47D breast; SK-MEL-5 melanoma; ACHN renal; NCI-H23 lung.
Common to all, as to assay: NCI tumour cell line growth inhibition, 48 h

The structures appear in SMILES notation.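 Method: 48-hour compound exposure of cells in 96-well plates, five concentrations, linear interpolation of endpoints. The concentration for 50% growth inhibition is given as GI50. Definition used: TGI = concentration required for complete inhibition of growth.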

As for `C=C1N(C=O)C(C)(C)N(O)C1(C)C`, the TGI with OVCAR-5 ovarian, in the test with HOP-92 NSCLC, in the test with MDA-MB-435, with UACC-257 melanoma, with U251 CNS and in the test on A549 NSCLC was more than 100 µM in each case. Further, the TGI in the test on T-47D breast, with SK-MEL-5 melanoma, in the test with ACHN renal and in the test on NCI-H23 lung was more than 100 µM throughout.
As for `C=C(C)OCOCCOC`, the TGI with OVCAR-5 ovarian, in the test on MDA-MB-435, in the test on UACC-257 melanoma, in the test on U251 CNS, in the test with A549 NSCLC and with T-47D breast was more than 100 µM each time. Besides, the TGI with SK-MEL-5 melanoma, in the test with ACHN renal and with NCI-H23 lung was more than 100 µM throughout.
Regarding `NC(=O)c1csc(C2(O)COC(CO)C2O)n1` (stereo not drawn), the TGI with OVCAR-5 ovarian, in the test on HOP-92 NSCLC, in the test on MDA-MB-435, in the test on UACC-257 melanoma, in the test on U251 CNS and in the test on A549 NSCLC was more than 100 µM in each case. In addition, the TGI in the test with T-47D breast, in the test with SK-MEL-5 melanoma, with ACHN renal and with NCI-H23 lung was more than 100 µM each time.
With `COC(=O)C1CCc2sc3ncnc(Nc4cn[nH]c4C(=O)Nc4ccc(CN5CCN(C)CC5)cc4)c3c21` (stereo not drawn), the GI50 in the test with HOP-92 NSCLC was 1.14 µM; in the test on MDA-MB-435, 1.06 µM; in the test on UACC-257 melanoma, 1.19 µM; in the test with T-47D breast, 0.957 µM; in the test on SK-MEL-5 melanoma it was 0.58 µM; with ACHN renal it was 0.232 µM. The GI50 with NCI-H23 lung is 0.506 µM. For the same molecule, the TGI with HOP-92 NSCLC was 5.88 µM; in the test on MDA-MB-435, 3.38 µM; with UACC-257 melanoma, 2.8 µM; in the test with T-47D breast, 11.6 µM; with SK-MEL-5 melanoma it was 2.56 µM; in the test with ACHN renal it was 10.1 µM. The TGI with NCI-H23 lung amounted to 2.67 µM.
For the molecule `CC1(C)OCC2OC3([C@@H]4OC(C)(C)O[C@H]4CO)OC(C)(C)OC3C2O1` (stereo partly drawn), the TGI with OVCAR-5 ovarian, with HOP-92 NSCLC, in the test on MDA-MB-435, with UACC-257 melanoma, in the test with U251 CNS and in the test on A549 NSCLC was more than 100 µM each time. For the same molecule, the TGI with T-47D breast, in the test with SK-MEL-5 melanoma, with ACHN renal and with NCI-H23 lung was more than 100 µM in each case.
`Cc1[nH]c(=O)nc(NCCNCCO)c1C(=O)Nc1cccc2cc3ccccc3cc12`: the TGI in the test on OVCAR-5 ovarian, in the test on HOP-92 NSCLC, with MDA-MB-435, with UACC-257 melanoma, with U251 CNS and in the test with A549 NSCLC was more than 100 µM in each case. For the same molecule, the TGI in the test with T-47D breast, in the test with SK-MEL-5 melanoma, in the test on ACHN renal and with NCI-H23 lung was more than 100 µM throughout.
As for `C[C@]12CCC(=O)[C@@H](CCC3=CC(=O)C=CC3=O)[C@@H]1CCC2=O`, the TGI in the test with OVCAR-5 ovarian was more than 75.1 µM; in the test on HOP-92 NSCLC, more than 100 µM; in the test on MDA-MB-435, more than 56.2 µM; with UACC-257 melanoma, 39 µM; in the test on U251 CNS, more than 47.3 µM; with A549 NSCLC, more than 54.5 µM. Besides, the TGI is more than 81.7 µM in the test on T-47D breast, 20.7 µM with SK-MEL-5 melanoma, 32.5 µM with ACHN renal and 38.2 µM with NCI-H23 lung.
On to `COc1cc2cc(C(=O)N3C[C@H](CCl)c4c3cc(N)c3ccccc43)[nH]c2c(OC)c1OC`, for which the GI50 in the test with OVCAR-5 ovarian and with U251 CNS was 0.005 µM throughout. Further, the TGI in the test on OVCAR-5 ovarian was 0.552 µM; in the test on HOP-92 NSCLC, more than 50 µM; in the test with MDA-MB-435, 0.137 µM; in the test with U251 CNS, more than 50 µM; in the test on A549 NSCLC, more than 50 µM; in the test with T-47D breast, less than 0.005 µM. The TGI in the test on SK-MEL-5 melanoma and with ACHN renal was less than 0.005 µM in each case.
Regarding `CCCCC1=C(C(=O)N2CCOCC2)C2(OCCO2)C1=O`, the TGI with OVCAR-5 ovarian is 46.8 µM; with HOP-92 NSCLC, 66.4 µM; with MDA-MB-435, 50.8 µM; in the test on UACC-257 melanoma, 89.9 µM; with U251 CNS, 88.3 µM; in the test on A549 NSCLC, 87.7 µM. Moreover, the TGI in the test on T-47D breast is more than 100 µM; in the test on SK-MEL-5 melanoma, 33.2 µM; in the test on ACHN renal, 34.8 µM; in the test on NCI-H23 lung it was 51.1 µM.
As to `COc1ccccc1C1Nn2c(nc3ccccc3c2=O)N1c1ccc(C)cc1` (stereo not drawn), the TGI came to 26.6 µM with OVCAR-5 ovarian; 23.1 µM in the test with HOP-92 NSCLC; 22.7 µM in the test with MDA-MB-435; 43.3 µM in the test on UACC-257 melanoma; 6.68 µM in the test with U251 CNS; 19.7 µM in the test with A549 NSCLC. Also, the TGI was found to be 21 µM in the test on T-47D breast, 22.5 µM with SK-MEL-5 melanoma, 16.7 µM in the test on ACHN renal and 29.3 µM with NCI-H23 lung.
Regarding `COc1cc(-c2n/c(=C\c3c(O)[nH]c4ccc(Cl)cc34)cc3c2=Nc2ccccc2-3)ccc1F`, the GI50 in the test on OVCAR-5 ovarian is 3.9 µM; with HOP-92 NSCLC, 1.73 µM; in the test on MDA-MB-435, 2.16 µM; in the test on UACC-257 melanoma, 3.43 µM; in the test on U251 CNS, 1.58 µM; with A549 NSCLC, 1.76 µM. Also, the GI50 is 1.5 µM in the test with T-47D breast, 2.84 µM in the test on SK-MEL-5 melanoma, 1.85 µM in the test on ACHN renal and 1.73 µM in the test with NCI-H23 lung. In addition, the TGI with OVCAR-5 ovarian was determined as 13.3 µM; in the test with HOP-92 NSCLC it was 3.82 µM; in the test on MDA-MB-435, 4.65 µM; in the test on UACC-257 melanoma, 10.9 µM; in the test on U251 CNS, 3.06 µM; in the test with A549 NSCLC, 3.38 µM. The TGI was 3.5 µM with T-47D breast, 10.8 µM with SK-MEL-5 melanoma, 3.76 µM with ACHN renal and 3.42 µM in the test on NCI-H23 lung.
In the case of `CC(C)C(=O)C(C)(C)CCc1ccccn1`, the TGI with OVCAR-5 ovarian, with HOP-92 NSCLC, in the test with MDA-MB-435, in the test with UACC-257 melanoma, in the test with U251 CNS and with A549 NSCLC was more than 100 µM throughout. Besides, the TGI in the test on T-47D breast, in the test with SK-MEL-5 melanoma, in the test with ACHN renal and in the test on NCI-H23 lung was more than 100 µM in each case.
